Experimental data taken from patent publication US20260256668A1, “METHODS FOR STRENGTHENING AND REPAIRING HAIR” (Living Proof, Inc., priority 2023, published 2026).

How the values were obtained:
[1] = Hair denaturation temperature (Td) by differential scanning calorimeter (DSC); settings: 3× bleached hair; for hair denaturation temperature (Td) compared to bleached, virgin and phytic acid (PA) treated hair: 2 wt % active aqueous solution, pH 4.0-4.5, 10 min, blow dry (FIGS. 4, 6, 7)
Experimental: European virgin brown hair was bleached three times to obtain the 3× bleached hair model. Each bleaching was done with a mixture of bleaching powder (BW2) and 40V clear developer at 1:2 ratio (5 g mixture per 1.5 g of hair) for 1 hour at room temperature, followed by 30 s water rinse, 1× wash with Sodium Lauryl Ether Sulfate (SLES), and dried in a humidity chamber for 15 min at 50° C., 20% RH. […] For each DSC measurement, a 3-5 mg of hair sample in 50 μL Deionized water is sealed and equilibrated (overnight) in a stainless-steel pressure resistant high-volume pan, then heated from 25° C. to 180° C. at a 5° C./min heating rate.

[2] = Dia-Stron single fiber tensile (mechanical) testing; settings: 3× bleached hair, compared to bleached hair before treatment (FIG. 8)
Experimental: All single fiber tensile measurements are performed using a Dia-Stron MTT686/MTT690 (under 100% extension at gauge force of […], break threshold of 5 g, rate of 20 mm/min, maximum force of 2000 gmf and premature failure threshold of 10% strain). Before the tensile testing, all hair fibers (30 mm in length, ≥20 fibers per treatment) are fixed by 2 brass crimps at the ends and mounted on a Dia-Stron tray. Initial dimension measurements are collected using a Dia-Stron FDAS770 (double ended samples, sample size of 30 mm in length, no of slices of 5 under one rotation per slice), followed by equilibration in Deionized water for at least 2 h prior to testing.

[3] = Water contact angle (surface hydrophobicity), DSA100M Drop Shape Analyzer
Experimental: For this test, […], which was prepared by treating European virgin brown hair with a mixture of BW2 bleaching powder and clear 30 V developer (1:1.5 ratio, 5 g mixture per 1.5 g of hair) for 20 min under a Belvedere hooded dryer with high heat setting, followed by 30 s water rinse, 30 s 10% SLES wash, and air dry at room temperature. […] In the DSA method, a single hair fiber is mounted in a sample holder and focused by the digital camera of DSA100M. Then a droplet of filtered DI water (20-60 nL) is applied to the top of the hair fiber by a digital droplet applier, A video is then recorded until the disappearance of the water droplet. The water contact angle is obtained using the first image of the water droplet recorded. The data is collected for 3 fibers per treatment and 3 points per fiber, a total of 9 data points per treatment.

Compound | hair denaturation temperature (Td) compared to bleached, virgin and phytic acid (PA) treated hair [1] | Young's modulus [2] | other results
NCP(=O)(O)O [AMPA, Aminomethyl phosphonic acid] | full recovery of Td to the virgin level | biggest increases in Young's modulus | 
C=CP(=O)(O)O [VPA, Vinyl phosphonic acid] | full recovery of Td to the virgin level | biggest increases in Young's modulus | 
CCCCCCCCCCCCOP(=O)(O)O [DPhate, Lauryl phosphate] |  |  | water contact angle relative to virgin hair ([3]; ethanol solution 2 wt %, 10 min, blow dry (FIG. 12)): recovered significantly and close to the virgin level
O=P(O)(O)O[C@H]1[C@H](OP(=O)(O)O)[C@@H](OP(=O)(O)O)[C@H](OP(=O)(O)O)[C@@H](OP(=O)(O)O)[C@H]1OP(=O)(O)O [PA, phytic acid, reference compound] |  |  | hair denaturation temperature (Td) compared to the base formula ([1]; washed, 0.25 g formula (PA 0.75 wt %, with or without DPhate 1 wt %) 10 min, blow dried (FIG. 17)): significantly increased Td; hair surface hydrophobicity (water contact angle) compared to base formula ([3]; formula with PA 0.75 wt %, with or without DPhate 1 wt % (FIG. 18)): significantly improved hair surface hydrophobicity
Phosphatidylcholine [PC] |  |  | water contact angle relative to virgin hair ([3]; aqueous solution 1 wt % active (FIG. 14)): recovered close to the virgin level
